Assays:
[1] = test system: transcription factor NF-κB; conditions: Non-patent Literature 2 and 3; cited from earlier work
[2] = test system: pulmonary artery smooth muscle cells; conditions: previous report, Non-patent Literature 3; cited from earlier work
[3] = test system: pulmonary artery smooth muscle cells derived from patients with idiopathic pulmonary arterial hypertension (IPAH-PASMCs); experiment: ability to suppress the proliferation of pulmonary artery smooth muscle cells from patients with pulmonary hypertension (MTT assay); assay type: cell-based, human; conditions: for day 2/day 0 cell number ratio (MTT cell viability): 48 hours, IPAH-PASMC line 1, 10% FBS control 1.40; for suppressive effect on the proliferation of pulmonary artery smooth muscle cells: same method as Example 1, data not shown
Procedure: The following compounds were used to assess the abilities of these compounds to suppress the proliferation of pulmonary artery smooth muscle cells from patients with pulmonary hypertension (IPAH-PASMC line: 1)
Those compounds were obtained by synthesis in the Faculty of Pharmaceutical Sciences, Tohoku University. Specifically, first, 66 μl each of pulmonary artery smooth muscle cells derived from patients with idiopathic pulmonary arterial hypertension (IPAH-PASMCs) suspended in a 10% FBS medium (DMEM supplemented with 10% FBS) were seeded in a 96-well plate at 50,000 cells/ml (day −1). 24 Hours after the cell seeding (the time point was defined as day 0), 33 μl each of 300 nM, 3 μM, and 15 μM solutions of CEL-1 to CEL-8, CEL-10, CEL-13 to CEL-15, and CEL-19 in 10% FBS containing 1% DMSO were added to the wells so that the final concentrations were 100 nM, 1 μM, and 5 μM, respectively. As a control, 33 μl of 10% FBS containing 1% DMSO was added in place of CEL-1 to CEL-8, CEL-10, CEL-13 to CEL-15, and CEL-19. On day 0 (immediately before the addition of each of CEL-1 to CEL-8, CEL-10, CEL-13 to CEL-15, and CEL-19), a cell viability was confirmed by performing CellTiter 96 (trademark) AQueous One Solution Cell Proliferation Assay, promega MTT assay. Further, 48 hours after the addition of each of CEL-1 to CEL-8, CEL-10, CEL-13 to CEL-15, and CEL-19 (day 2), the MTT assay was performed again to observe a change in cell viability. Thus, a cell proliferation-suppressing effect was assessed.
In addition, in the case where R^2 in the general formula (I) represents an alkyl group, in order to explore an association between the length of the alkyl group and a pulmonary artery smooth muscle cell proliferation-suppressing effect, a test on an ability to suppress the proliferation of the pulmonary artery smooth muscle cells from patients with pulmonary hypertension (IPAH-PASMC line:1) was performed three times, and the lengths of alkyl groups of the respective compounds and the results of stimulation with the compounds at a concentration of 5 μM for 48 hours (averages of day 2/day 0 cell number ratios) were shown graphically. A Pearson's correlation test was performed on the lengths of the alkyl groups and the day 2/day 0 cell number ratios. As a result, a significant correlation was found with a P-value of 0.0298.

[4] = molecular target: zinc finger protein ZFC3H1 (Homo sapiens, UniProt O60293); conditions: Non-patent Literature 2; cited from earlier work
[5] = test system: hypoxia-induced pulmonary hypertension mouse model; experiment: hypoxia-induced pulmonary hypertension mouse model; assay type: in vivo, C57BL/6 mice; conditions: 10 mg/kg/day continuous subcutaneous infusion
Procedure: Next, the therapeutic effect of CEL-3 on pulmonary hypertension was assessed in vivo. Specifically, the influence of CEL-3 on a hypoxia-induced pulmonary hypertension mouse model was investigated. The pulmonary hypertension mouse model was generated by breeding 9-week-old male C57BL/6 mice (n=14) in a hypoxic chamber having an oxygen concentration of from 8% to 12%. Before being housed in the hypoxic chamber, the mice were implanted with an osmotic pump containing CEL-3 dissolved with 50% DMSO, and were administered CEL-3 at 10 mg/kg/day by continuous subcutaneous infusion. The Vehicle group was administered a DMSO solution at the same concentration with an osmotic pump. The mice were bred in the hypoxic chamber for 3 weeks and then sacrificed to measure a right ventricular systolic pressure (RVSP) with a pressure catheter 1.2F (Transonic Scisense, US). In addition, after formalin fixation, the right ventricle and the left ventricle were separated to measure a right ventricle/(left ventricle plus septum) weight ratio RV/[LV+S]). Then, the extent of pulmonary hypertension was assessed on the basis of those results. The body weights of the Vehicle group and the CEL-3 administration group before the test were each 25.6±0.3 g. In addition, the body weights of the Vehicle group and the CEL-3 administration group after the test were 24.2±0.8 g and 23.9±0.7 g, respectively.

[6] = test system: SU5416/hypoxia-induced pulmonary hypertension rat model; experiment: SU5416/hypoxia-induced pulmonary hypertension rat model; assay type: in vivo, Sprague-Dawley rats; conditions: 3 mg/kg intraperitoneally daily for 2 weeks
Procedure: The pulmonary hypertension rat model was generated by: subcutaneously injecting 6-week-old male Sprague-Dawley rats ([…]) with SU5416 at 20 mg/kg; and then breeding the rats in a hypoxic chamber having an oxygen concentration of from 8% to 12% for 3 weeks followed by breeding the rats under normoxia for 2 weeks. After the hypoxic stimulation for 3 weeks, the rats were intraperitoneally injected with CEL-3 dissolved with 10% DMSO at 3 mg/kg daily for 2 weeks. The Vehicle group was intraperitoneally injected with a DMSO solution at the same concentration. The rats were treated with CEL-3 for 2 weeks and then sacrificed to measure a right ventricular systolic pressure (RVSP) with a pressure catheter 1.6F (Transonic Scisense, US). In addition, after formalin fixation, the right ventricle and the left ventricle were separated to measure a right ventricle/(left ventricle plus septum) weight ratio (RV/[LV+S]). Then, the extent of pulmonary hypertension was assessed on the basis of those results. The body weights of the Control group, the Vehicle group, and the CEL-3 administration group before the test were 160.8±1.7 g, 163.4±2.5 g, and 158.9±1.9 g, respectively. In addition, the body weights of the Control group, the Vehicle group, and the CEL-3 administration group after the test were 355.4±5.1 g, 264.91±9.3 g, and 260.0±11.1 g, respectively.

[7] = final concentration 100 nm (so in the source)
[8] = 3 weeks hypoxia, vs control group (FIG. 3)

Chain of zinc finger protein ZFC3H1 (O60293 whole entry, the tested form may be a part): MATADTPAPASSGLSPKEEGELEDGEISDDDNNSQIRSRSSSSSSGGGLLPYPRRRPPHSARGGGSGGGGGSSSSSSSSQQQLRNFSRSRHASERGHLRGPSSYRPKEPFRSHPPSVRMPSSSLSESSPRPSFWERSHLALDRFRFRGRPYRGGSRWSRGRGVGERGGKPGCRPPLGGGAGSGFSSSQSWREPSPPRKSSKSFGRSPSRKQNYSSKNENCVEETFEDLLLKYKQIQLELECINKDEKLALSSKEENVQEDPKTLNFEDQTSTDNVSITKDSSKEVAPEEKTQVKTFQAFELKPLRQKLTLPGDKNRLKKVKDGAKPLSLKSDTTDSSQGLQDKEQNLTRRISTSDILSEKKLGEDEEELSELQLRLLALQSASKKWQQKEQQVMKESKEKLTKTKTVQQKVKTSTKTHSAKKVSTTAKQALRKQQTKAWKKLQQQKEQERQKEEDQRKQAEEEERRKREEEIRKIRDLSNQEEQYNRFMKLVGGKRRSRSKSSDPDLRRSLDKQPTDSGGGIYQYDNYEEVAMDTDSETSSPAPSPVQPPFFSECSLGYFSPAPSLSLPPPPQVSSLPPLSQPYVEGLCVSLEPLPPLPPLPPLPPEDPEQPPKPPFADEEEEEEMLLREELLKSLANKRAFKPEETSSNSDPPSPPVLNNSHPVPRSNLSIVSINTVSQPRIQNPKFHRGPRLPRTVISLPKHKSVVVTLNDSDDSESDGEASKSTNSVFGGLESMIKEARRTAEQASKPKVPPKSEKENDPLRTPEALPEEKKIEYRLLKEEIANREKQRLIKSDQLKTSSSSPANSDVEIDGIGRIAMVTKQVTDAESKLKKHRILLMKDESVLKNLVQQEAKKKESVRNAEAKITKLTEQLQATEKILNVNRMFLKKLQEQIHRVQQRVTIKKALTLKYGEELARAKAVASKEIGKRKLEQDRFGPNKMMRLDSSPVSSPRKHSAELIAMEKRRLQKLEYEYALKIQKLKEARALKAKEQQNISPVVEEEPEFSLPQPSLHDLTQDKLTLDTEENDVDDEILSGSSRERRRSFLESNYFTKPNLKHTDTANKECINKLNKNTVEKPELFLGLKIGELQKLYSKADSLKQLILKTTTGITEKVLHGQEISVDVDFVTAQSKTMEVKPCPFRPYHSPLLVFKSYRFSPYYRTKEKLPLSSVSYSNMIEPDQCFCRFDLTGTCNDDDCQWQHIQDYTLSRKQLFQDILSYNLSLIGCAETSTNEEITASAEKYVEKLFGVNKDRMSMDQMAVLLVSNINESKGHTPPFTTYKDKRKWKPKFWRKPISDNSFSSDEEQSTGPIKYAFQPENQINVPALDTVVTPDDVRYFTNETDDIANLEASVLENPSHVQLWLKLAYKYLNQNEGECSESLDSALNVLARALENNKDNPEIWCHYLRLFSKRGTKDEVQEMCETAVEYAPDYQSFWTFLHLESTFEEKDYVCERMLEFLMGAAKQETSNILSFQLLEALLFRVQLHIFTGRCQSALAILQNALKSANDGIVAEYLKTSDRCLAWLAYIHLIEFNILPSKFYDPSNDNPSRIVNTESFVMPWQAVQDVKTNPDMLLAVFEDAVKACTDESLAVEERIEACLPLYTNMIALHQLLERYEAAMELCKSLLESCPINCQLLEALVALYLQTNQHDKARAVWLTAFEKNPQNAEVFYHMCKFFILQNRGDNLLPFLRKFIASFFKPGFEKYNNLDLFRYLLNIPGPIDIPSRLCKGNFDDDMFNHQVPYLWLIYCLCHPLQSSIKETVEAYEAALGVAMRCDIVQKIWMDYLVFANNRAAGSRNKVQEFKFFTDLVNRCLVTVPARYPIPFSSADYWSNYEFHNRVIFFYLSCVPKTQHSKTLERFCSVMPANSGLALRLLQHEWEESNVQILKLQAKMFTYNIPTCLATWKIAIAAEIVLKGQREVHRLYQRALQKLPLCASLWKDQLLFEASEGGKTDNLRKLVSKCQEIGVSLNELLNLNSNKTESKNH

Row | Structure (SMILES) | day 2/day 0 cell number ratio (MTT cell viability) ([3]; final concentration 1 μM) | day 2/day 0 cell number ratio (MTT cell viability) ([3]; final concentration 5 μM) | day 2/day 0 cell number ratio (MTT cell viability) [3, 7] | other results
1 | O=C(Nc1cc(C(F)(F)F)cc(C(F)(F)F)c1)c1cc(Cl)ccc1O [IMD-0354, N-[3,5-bis(trifluoromethyl)phenyl]-5-chloro-2-hydroxybenzamide, reference compound] |  |  |  | NF-κB-inhibiting action [1]: has an NF-κB-inhibiting action; suppression of proliferation of pulmonary artery smooth muscle cells [2]: suppresses the proliferation of pulmonary artery smooth muscle cells
2 | O=C(c1cc(Cl)c(Cl)[nH]1)c1c(O)ccc(Cl)c1O [CEL-2] | 1.36 | 0.87 | 1.37 | 
3 | CCCCCCc1cc(Br)c(O)c(C(=O)c2cc(Cl)c(Cl)[nH]2)c1O [CEL-15] | 0.78 | 0.54 | 1.26 | 
4 | CCCCc1cc(Cl)c(O)c(C(=O)c2cc(Cl)c(Cl)[nH]2)c1O [CEL-4] | 0.79 | 0.53 | 1.24 | 
5 | CCCCCCCc1cc(Cl)c(O)c(C(=O)c2cc(Cl)c(Cl)[nH]2)c1O [CEL-6] | 0.77 | 0.54 | 1.23 | 
6 | CCCCCc1cc(Cl)c(O)c(C(=O)c2cc(Cl)c(Cl)[nH]2)c1O [CEL-5] | 0.79 | 0.53 | 1.25 | 
7 | CCCCCCCCc1cc(Cl)c(O)c(C(=O)c2cc(Cl)c(Cl)[nH]2)c1O [CEL-7] | 0.84 | 0.52 | 1.27 | 
8 | O=C(/C=C/c1ccc(O)c(O)c1)OCCc1ccccc1 [caffeic acid phenethyl ester, reference compound] |  |  |  | suppressive effect on the proliferation of pulmonary artery smooth muscle cells ([3]; final concentration 5 μM): not sufficiently suppressed
9 | CCCCCCc1cc(Cl)c(O)c(C(=O)c2cc(Cl)c(Cl)[nH]2)c1O [CEL-1, celastramycin] | 0.83 | 0.52 | 1.46 | NF-κB-inhibiting action [1]: inhibit signal transduction in which a transcription factor NF-κB is involved; binding to ZFC3H1 [4]: binds to a zinc finger protein ZFC3H1
10 | CCCCCCc1cc(Cl)c(O)c(C(=O)c2cc(Br)c(Br)[nH]2)c1O [CEL-13] | 0.72 | 0.51 | 1.20 | 
11 | CCCCCCc1cc(Cl)c(O)c(C(=O)c2c[nH]c(Cl)c2Cl)c1O [CEL-19] | 1.24 | 0.94 | 1.31 | 
12 | CCCCCCc1cc(C)c(O)c(C(=O)c2cc(Cl)c(Cl)[nH]2)c1O [CEL-10] | 0.68 | 0.48 | 1.16 | 
13 | Cc1cc(Cl)c(O)c(C(=O)c2cc(Cl)c(Cl)[nH]2)c1O [CEL-3] | 0.99 | 0.81 | 1.25 | increase in right ventricle/(left ventricle plus septum) weight ratio (RV/[LV+S]) [5, 8]: suppressed; increase in right ventricular systolic pressure (RVSP) [5, 8]: suppressed; body weight after the test ([5]; 3 weeks, Vehicle group 24.2±0.8 g): 23.9 ± 0.7 g; increase in right ventricle/(left ventricle plus septum) weight ratio (RV/[LV+S]) ([6]; vs control group (FIG. 4)): suppressed; increase in right ventricular systolic pressure (RVSP) ([6]; vs control group (FIG. 4)): suppressed; body weight after the test ([6]; Vehicle group 264.91±9.3 g): 260.0 ± 11.1 g
14 | CCCCCCCCCCCCc1cc(Cl)c(O)c(C(=O)c2cc(Cl)c(Cl)[nH]2)c1O [CEL-8] | 0.74 | 0.47 | 1.13 | 
15 | Cc1ccc(S(=O)(=O)N[C@@H](CCCCN)C(=O)CCl)cc1.Cl [Nα-p-tosyl-L-lysine chloromethyl ketone hydrochloride, reference compound] |  |  |  | suppressive effect on the proliferation of pulmonary artery smooth muscle cells ([3]; final concentration 5 μM): not sufficiently suppressed
16 | Cc1ccc(S(=O)(=O)N[C@@H](Cc2ccccc2)C(=O)CCl)cc1 [N-p-tosyl-L-phenylalanine chloromethyl ketone, reference compound] |  |  |  | suppressive effect on the proliferation of pulmonary artery smooth muscle cells ([3]; final concentration 5 μM): not sufficiently suppressed
17 | CCCc1cc(Cl)c(O)c(C(=O)c2ccc(Br)[nH]2)c1O [CEL-14] | 1.35 | 0.88 | 1.37 | 

From patent US11413273B2, “Prophylactic or therapeutic agent for pulmonary hypertension comprising unsaturated 5-membered heterocycle-containing compound” (TOHOKU UNIVERSITY, priority 2016, dated 2022)
